Laboratory results from paper PMC9867837 (Cancer letters, 2022).

Experiments:
pYStat3C328A = biological target: T1, pYStat3C328A (Homo sapiens, UniProt P40763, C328A); assay: EMSA with purified mutant pYStat3C328A; format: biochemical; conditions: 3 μM H182, 30 min
T1 construct: made in house; host or cells: E. coli BL21(DE3) TKB1 (inducible tyrosine kinase)
Source text: This construct was used to generate the mutants, Stat3C328A, Stat3C426A, Stat3C468A, and Stat3C542S, as described in detail in Supplementary Information “Methods”.
The expression of un-phosphorylated and tyrosine phosphorylated His-tagged recombinant wtStat3 and mutant Stat3 proteins in BL21 (DE3) bacterial cells is described in detail in Supplementary Information “Methods”.
Given the MS data, we conducted site-directed mutagenesis analysis for the effects of Cys mutations (Cys-to-Ala or Cys-to-Ser mutations) on the inhibitory activities or potencies of the compounds. […]
In another case, the nuclear extract was pre-incubated with the radiolabeled probe for 30 min at 30 °C prior to incubation with increasing concentration of H182 at room temperature for 30 min and subjecting to EMSA analysis. Bands corresponding to Stats DNA- binding activities were scanned and quantified using ImageJ and plotted as a percentage of control (vehicle) against the concentration of the inhibitor, from which the IC50 values were derived . […]
These studies were performed as previously reported using the v-Src -transformed NIH3T3/v-Src fibroblasts [1 -5] . […] Luciferase activity was normalized to total protein concentration of cell lysate, which was determined by Bradford assay (Bio-Rad, Hercules, CA) . […]

[1] = biological target: T2, glucocorticoid receptor (GR) (Homo sapiens, UniProt P04150); assay: CEREP SafetyScreen44, glucocorticoid receptor; format: binding
T2 construct: Eurofins-CEREP (SafetyScreen44 panel)
T2 sequence (P04150 whole entry): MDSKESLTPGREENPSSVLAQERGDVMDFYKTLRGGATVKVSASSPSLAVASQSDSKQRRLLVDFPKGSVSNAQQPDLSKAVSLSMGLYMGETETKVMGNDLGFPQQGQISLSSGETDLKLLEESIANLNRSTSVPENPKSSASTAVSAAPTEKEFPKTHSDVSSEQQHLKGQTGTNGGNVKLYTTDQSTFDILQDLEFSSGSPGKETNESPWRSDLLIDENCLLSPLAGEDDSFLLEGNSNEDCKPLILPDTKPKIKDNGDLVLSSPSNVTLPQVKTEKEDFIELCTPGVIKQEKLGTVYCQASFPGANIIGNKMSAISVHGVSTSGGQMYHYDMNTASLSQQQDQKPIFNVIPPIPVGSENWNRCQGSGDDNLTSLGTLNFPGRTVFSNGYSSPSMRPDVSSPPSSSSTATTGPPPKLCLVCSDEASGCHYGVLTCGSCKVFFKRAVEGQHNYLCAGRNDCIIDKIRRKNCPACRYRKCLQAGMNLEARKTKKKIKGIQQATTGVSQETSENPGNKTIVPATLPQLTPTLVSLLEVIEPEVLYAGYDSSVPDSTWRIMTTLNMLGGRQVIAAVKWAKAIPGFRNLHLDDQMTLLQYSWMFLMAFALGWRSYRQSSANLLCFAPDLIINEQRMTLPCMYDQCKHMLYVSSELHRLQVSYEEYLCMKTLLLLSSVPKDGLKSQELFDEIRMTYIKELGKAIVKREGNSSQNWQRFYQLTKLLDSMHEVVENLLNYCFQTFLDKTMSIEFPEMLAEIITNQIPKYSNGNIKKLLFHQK

T1 sequence (P40763 127-711 C328A): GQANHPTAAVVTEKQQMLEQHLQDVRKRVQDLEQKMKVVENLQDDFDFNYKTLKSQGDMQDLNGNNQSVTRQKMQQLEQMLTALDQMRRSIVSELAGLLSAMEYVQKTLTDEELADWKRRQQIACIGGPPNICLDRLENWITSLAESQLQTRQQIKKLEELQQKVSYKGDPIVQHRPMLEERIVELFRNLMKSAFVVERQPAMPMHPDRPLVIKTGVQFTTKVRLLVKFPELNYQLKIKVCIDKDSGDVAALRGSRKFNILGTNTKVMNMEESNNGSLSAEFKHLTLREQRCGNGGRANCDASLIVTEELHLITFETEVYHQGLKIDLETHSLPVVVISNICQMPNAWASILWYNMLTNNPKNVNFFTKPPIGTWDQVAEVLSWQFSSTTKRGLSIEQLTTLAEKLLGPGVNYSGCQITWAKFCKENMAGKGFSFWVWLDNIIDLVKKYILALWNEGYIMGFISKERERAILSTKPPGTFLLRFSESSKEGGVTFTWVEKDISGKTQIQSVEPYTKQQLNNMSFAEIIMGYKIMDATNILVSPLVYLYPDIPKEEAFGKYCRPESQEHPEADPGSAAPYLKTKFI

Q: `O=C([C@H]1CCN1S(=O)(=O)c1c(F)c(F)c(F)c(F)c1F)N(Cc1ccc(C2CCCCC2)cn1)c1ccc2c(=O)[nH]ncc2c1` [Compound H182] was tested. Which “Effect on DNA-binding activity of pYStat3C328A” value (pYStat3C328A) did it give?
A: strong inhibition

Q: What about the inhibition at 10 µM ([1]; 10 μM H182) of the same compound?
A: > 80%

Q: And the IC50 ([1]; SafetyScreen44 follow-up dose-response)?
A: 0.11 µM
